Experiment: Solubility of Erg-TAD-Py (dissolved concentration by HPLC)
Type: physicochemical

CC(C)[C@@H](C)/C=C/[C@@H](C)C1CCC2C34C=CC5(C[C@@H](O)CC[C@]5(C)C3CC[C@]12C)n1c(=O)n(CCCc2ccc3ccc5cccc6ccc2c3c56)c(=O)n14 (some centres unmarked) [Erg-TAD-Py, Ergosterol-triazolinedione-pyrene]
Concentration of dissolved Erg-TAD-Py (10% DMSO in serum (inactivated fetal calf serum)): 7800 ng/mL
Concentration of dissolved Erg-TAD-Py (10% DMSO in water): 700 ng/mL
Concentration of dissolved Erg-TAD-Py (30% DMSO in serum (inactivated fetal calf serum)): 8400 ng/mL
Concentration of dissolved Erg-TAD-Py (30% DMSO in water): 6700 ng/mL
Concentration of dissolved Erg-TAD-Py (50% DMSO in serum (inactivated fetal calf serum)): 6800 ng/mL
Concentration of dissolved Erg-TAD-Py (50% DMSO in water): 6000 ng/mL
Concentration at which ethanol dissolves Erg-TAD-Py: 50000 ng/mL
Concentration at which ethanol dissolves Erg-TAD-Py (molar equivalent of 0.05 mg/ml): about 60 uM

— patent US20110166297A1, “MOLECULARLY IMPRINTED SMART POLYMERS (MISPs)” (Sailo Nanotechnologies Ltd., priority 2008, published 2011)
